Test results from patent US9096565B2, “Inhibitors of histone deacetylase” (MethylGene Inc., priority 2007, dated 2015).

Each molecule was assayed against one or more of HDAC-4, HDAC-5, HDAC-6, HDAC-7, HDAC-8, HDAC-9, HDAC-10 and HDAC-11 (assay: Inhibition of histone deacetylase enzymatic activity (summary statement over isoforms)). Details: Table 3, selected examples; HDAC isoform not given.
Format: biochemical
Protocol: The following protocol is used to assay the compounds of the invention.
The mixture is pre-incubated for 5 minutes at room temperature. The reaction is started by bringing the temperature to 37° C. and adding 15 μL substrate. Total reaction volume is 50 μL.
A 30 mM stock of Boc-Lys(trifluoroacetyl)-AMC substrate is prepared in DMSO. […] Reaction is started by adding 18 μL Boc-Lys(trifluoroacetyl)-AMC substrate and incubating at 37° C. for 20-30 minutes. The reaction is stopped by adding 50 μL trypsin (1 mg/mL) and a known HDAC inhibitor.

IC50	Molecule
< 1 µM	O=C(NO)C(Oc1ccccc1)c1ccccc1 (centres unmarked) [Compound 1-2, N-hydroxy-2-phenoxy-2-phenylacetamide]
< 1 µM	O=C(NO)C(c1ccccc1)N1CCCCC1 (centres unmarked) [Compound 1-4, N-hydroxy-2-phenyl-2-(piperidin-1-yl)acetamide]
1 to 15 µM	O=C(CN(Cc1ccccc1)S(=O)(=O)c1ccccc1)NO [Compound 1-5, 2-(N-benzylphenylsulfonamido)-N-hydroxyacetamide]
< 1 µM	O=C(CC(c1ccccc1)c1ccccc1)NO [Compound 1-6, N-hydroxy-3,3-diphenylpropanamide]
< 1 µM	O=C(NO)C(c1ccc2c(c1)CCO2)c1ccc2c(c1)CCO2 [Compound 1-8, 2,2-bis(2,3-dihydrobenzofuran-5-yl)-N-hydroxyacetamide]
< 1 µM	O=C(NO)C(c1ccccc1)N1CCC(Cc2ccccc2)CC1 (centres unmarked) [Compound 1-9, 2-(4-benzylpiperidin-1-yl)-N-hydroxy-2-phenylacetamide]
< 1 µM	O=C(NO)C(c1ccccc1)C1CCCCC1 (centres unmarked) [Compound 1-10, 2-cyclohexyl-N-hydroxy-2-phenylacetamide]
1 to 15 µM	O=C(NO)C(Cc1ccccc1)c1ccccc1 (centres unmarked) [Compound 1-11, N-hydroxy-2,3-diphenylpropanamide]
< 1 µM	O=C(NO)C(Sc1ccccc1)c1ccccc1 (centres unmarked) [Compound 1-12, N-hydroxy-2-phenyl-2-(phenylthio)acetamide]
1 to 15 µM	O=C(NO)C(c1ccccc1)n1cccc1 (centres unmarked) [Compound 1-13, N-hydroxy-2-phenyl-2-(1H-pyrrol-1-yl)acetamide]
< 1 µM	CC(C(=O)NO)(c1ccccc1)c1ccccc1 [Compound 1-14, N-hydroxy-2,2-diphenylpropanamide]
< 1 µM	O=C(NO)C(c1ccc(Cl)cc1)c1ccc(Cl)cc1 [Compound 1-15, 2,2-bis(4-chlorophenyl)-N-hydroxyacetamide]
< 1 µM	O=C(NO)C(c1ccccc1)N1CCN(c2ccccc2)CC1 (centres unmarked) [Compound 1-16, N-hydroxy-2-phenyl-2-(4-phenylpiperazin-1-yl)acetamide]
1 to 15 µM	O=C(NO)C(c1ccccc1)N1CCN(Cc2ccccc2)CC1 (centres unmarked) [Compound 1-17, 2-(4-benzylpiperazin-1-yl)-N-hydroxy-2-phenylacetamide]
< 1 µM	O=C(NO)C(c1ccc(F)cc1)c1ccc(F)cc1 [Compound 1-18, 2,2-bis(4-fluorophenyl)-N-hydroxyacetamide]
< 1 µM	CCN(CC)c1ccc(C(C(=O)NO)c2ccccc2)cc1 (centres unmarked) [Compound 1-19, 2-(4-(diethylamino)phenyl)-N-hydroxy-2-phenylacetamide]
< 1 µM	O=C(NO)C(c1ccccc1)c1nc2ccc(-c3cccs3)cc2[nH]1 (centres unmarked) [Compound 1-20, N-hydroxy-2-phenyl-2-(6-(thiophen-2-yl)-1H-benzo[d]imidazol-2-yl)acetamide]
< 1 µM	O=C(NO)/C(=C/c1ccccc1)c1ccccc1 [Compound 1-21, (E)-N-hydroxy-2,3-diphenylacrylamide]
1 to 15 µM	O=C(NO)C(c1ccccc1)N1Cc2ccccc2C1 (centres unmarked) [Compound 1-22, N-hydroxy-2-(isoindolin-2-yl)-2-phenylacetamide]
1 to 15 µM	O=C(NO)C(c1cccs1)c1cccs1 [Compound 1-23, N-hydroxy-2,2-di(thiophen-2-yl)acetamide]
< 1 µM	O=C(NO)C(Sc1nc2ccccc2s1)c1ccccc1 (centres unmarked) [Compound 1-24, 2-(benzo[d]thiazol-2-ylthio)-N-hydroxy-2-phenylacetamide]
1 to 15 µM	O=C(NO)C(c1ccccc1)c1nc2cc(Cl)c(F)cc2[nH]1 (centres unmarked) [Compound 1-25, 2-(5-chloro-6-fluoro-1H-benzo[d]imidazol-2-yl)-N-hydroxy-2-phenylacetamide]
< 1 µM	O=C(NO)C(c1ccccc1)n1cc(-c2ccccc2)nn1 (centres unmarked) [Compound 1-26, N-hydroxy-2-phenyl-2-(4-phenyl-1H-1,2,3-triazol-1-yl)acetamide]

IC50	Molecule
1 to 15 µM	O=C(NO)C(c1ccccc1)n1cc(CCc2ccccc2)nn1 (centres unmarked) [Compound 1-27, N-hydroxy-2-(4-phenethyl-1H-1,2,3-triazol-1-yl)-2-phenylacetamide]
< 1 µM	CN(C)c1ccc(C(C(=O)NO)c2ccccc2)cc1 (centres unmarked) [Compound 1-29, 2-(4-(dimethylamino)phenyl)-N-hydroxy-2-phenylacetamide]
< 1 µM	O=C(NO)C(c1ccccc1)N1CCC(Cc2ccc(F)cc2)CC1 (centres unmarked) [Compound 1-30, 2-(4-(4-fluorobenzyl)piperidin-1-yl)-N-hydroxy-2-phenylacetamide]
< 1 µM	O=C(NO)C(c1ccccc1)N1CCC(CCc2ccccc2)CC1 (centres unmarked) [Compound 1-31, N-hydroxy-2-(4-phenethylpiperidin-1-yl)-2-phenylacetamide]
< 1 µM	O=C(NO)C(c1ccccc1)c1ccc(-c2ccccc2)cc1 (centres unmarked) [Compound 1-32, 2-(biphenyl-4-yl)-N-hydroxy-2-phenylacetamide]
< 1 µM	O=C(NO)C(C(=O)Nc1cccc(C(F)(F)F)c1)c1ccccc1 (centres unmarked) [Compound 1-33, N1-hydroxy-2-phenyl-N3-(3-(trifluoromethyl)phenyl)malonamide]
< 1 µM	O=C(NO)C(c1ccccc1)n1cc(Cc2ccccc2)nn1 (centres unmarked) [Compound 1-35, 2-(4-benzyl-1H-1,2,3-triazol-1-yl)-N-hydroxy-2-phenylacetamide]
< 1 µM	O=C(NO)C(c1ccccc1)N1CCN(c2ncccn2)CC1 (centres unmarked) [Compound 1-36, N-hydroxy-2-phenyl-2-(4-(pyrimidin-2-yl)piperazin-1-yl)acetamide]
< 1 µM	O=C(NO)C(Sc1nccc(-c2ccc(Cl)cc2)n1)c1ccccc1 (centres unmarked) [Compound 1-37, 2-(4-(4-chlorophenyl)pyrimidin-2-ylthio)-N-hydroxy-2-phenylacetamide]
< 1 µM	COc1ccccc1-c1nnc(C(C(=O)NO)c2ccccc2)s1 (centres unmarked) [Compound 1-38, N-hydroxy-2-(5-(2-methoxyphenyl)-1,3,4-thiadiazol-2-yl)-2-phenylacetamide]
< 1 µM	O=C(NO)C(c1ccccc1)c1nnc(-c2ccc(Br)cc2)s1 (centres unmarked) [Compound 1-39, 2-(5-(4-bromophenyl)-1,3,4-thiadiazol-2-yl)-N-hydroxy-2-phenylacetamide]
< 1 µM	CN(C)c1ccc(C(C(=O)NO)c2ccc(-c3ccccc3)cc2)cc1 (centres unmarked) [Compound 1-40, 2-(biphenyl-4-yl)-2-(4-(dimethylamino)phenyl)-N-hydroxyacetamide]
< 1 µM	O=C(NO)C(c1ccccc1)c1ccc(N2CCCC2)cc1 (centres unmarked) [Compound 1-41, N-hydroxy-2-phenyl-2-(4-(pyrrolidin-1-yl)phenyl)acetamide]
1 to 15 µM	O=C(NO)C(Sc1nc(-c2ccccc2)c(-c2ccccc2)[nH]1)c1ccccc1 (centres unmarked) [Compound 1-42, 2-(4,5-diphenyl-1H-imidazol-2-ylthio)-N-hydroxy-2-phenylacetamide]
< 1 µM	O=C(NO)C(c1ccccc1)N1CCC(Oc2ccccc2)CC1 (centres unmarked) [Compound 1-43, N-hydroxy-2-(4-phenoxypiperidin-1-yl)-2-phenylacetamide]
< 1 µM	O=C(NO)C(c1ccccc1)N1CCC(c2ccccc2)CC1 (centres unmarked) [Compound 1-44, N-hydroxy-2-phenyl-2-(4-phenylpiperidin-1-yl)acetamide]
< 1 µM	O=C(NO)C(c1ccccc1)c1ccc(-c2ccc(F)cc2)cc1 (centres unmarked) [Compound 1-45, 2-(4′-fluorobiphenyl-4-yl)-N-hydroxy-2-phenylacetamide]
< 1 µM	O=C(NO)C(Sc1ccc(-c2ccccc2)cc1)c1ccccc1 (centres unmarked) [Compound 1-46, 2-(biphenyl-4-ylthio)-N-hydroxy-2-phenylacetamide]
< 1 µM	O=CN(O)C(c1ccccc1)c1ccccc1 [Compound 1-47, N-benzhydryl-N-hydroxyformamide]
< 1 µM	O=C(NO)C(c1ccccc1)c1cccc(OCc2ccccc2)c1 (centres unmarked) [Compound 2-6, 2-(3-(benzyloxy)phenyl)-N-hydroxy-2-phenylacetamide]
1 to 15 µM	O=C(NO)C(c1ccccc1)c1cccc(OCCc2ccccc2)c1 (centres unmarked) [Compound 2-7, N-hydroxy-2-(3-phenethoxyphenyl)-2-phenylacetamide]
< 1 µM	O=C(NO)C(c1ccccc1)c1cccc(OCc2ccc(F)cc2)c1 (centres unmarked) [Compound 2-8, 2-(3-(4-fluorobenzyloxy)phenyl)-N-hydroxy-2-phenylacetamide]
< 1 µM	O=C(NO)C(c1ccccc1)c1ccc(OCC(=O)N2CCOCC2)cc1 (centres unmarked) [Compound 2-11, N-hydroxy-2-(4-(2-morpholino-2-oxoethoxy)phenyl)-2-phenylacetamide]

Molecule	IC50
2-(3-(benzo[d][1,3]dioxol-5-ylmethylbenzo[d][1,3]dioxol-5-ylmethoxy)phenyl)-N-hydroxy-2-phenylacetamide [Compound 3-7]	< 1 µM
2-(4-(benzo[d][1,3]dioxol-5-ylmethylbenzo[d][1,3]dioxol-5-ylmethoxy)phenyl)-N-hydroxy-2-phenylacetamide [Compound 3-11]	< 1 µM
O=C(NO)C(c1ccc([N+](=O)[O-])cc1)c1ccc([N+](=O)[O-])cc1 [Compound 1-3, N-hydroxy-2,2-bis(4-nitrophenyl)acetamide]	< 1 µM
O=C(NO)C(O)(c1ccccc1)c1ccccc1 [Compound 1-28, N,2-dihydroxy-2,2-diphenylacetamide]	< 1 µM
O=C(NO)C(c1ccccc1)N1CCC(c2c[nH]c3ccccc23)CC1 (centres unmarked) [Compound 1-34, 2-(4-(1H-indol-3-yl)piperidin-1-yl)-N-hydroxy-2-phenylacetamide]	< 1 µM
CCCCOc1cccc(C(C(=O)NO)c2ccccc2)c1 (centres unmarked) [Compound 2-5, 2-(3-butoxyphenyl)-N-hydroxy-2-phenylacetamide]	1 to 15 µM
CCCCOc1ccc(C(C(=O)NO)c2ccccc2)cc1 (centres unmarked) [Compound 2-10, 2-(4-butoxyphenyl)-N-hydroxy-2-phenylacetamide]	1 to 15 µM
